Experimental data from patent EP4721758A1, “NOVEL MEDICINE FOR TREATING OSTEOSARCOMA” (Japanese Foundation For Cancer Research, priority 2023, dated 2024).

How the values were obtained:
Mcl-1 = Mcl-1 (Homo sapiens, UniProt Q07820); conditions: cited from earlier work
topoisomerase = conditions: cited from earlier work
osteosarcoma cells [1] = assay: Inhibitor library drug screening, cell viability (CellTiter-Glo); format: cell-based, human; conditions: nine osteosarcoma cell lines and two PDC, 72 hours, heatmap Fig. 1A
Experimental: The nine human osteosarcoma cell lines (MG-63 cells, NY cells, HOS cells, HuO9 cells, HuO-3N1 cells, SJSA-1 cells, NOS-1 cells, NOS-10 cells, and G-292 clone A141B1 (G-292) cells) were purchased from the American Type Culture Collection, the RIKEN BioResource Research Center, or the Japanese Collection of Research Bioresources Cell Bank (JCRC) and used at lower passage numbers.
Specifically, • MG-63 cells, NY cells, and HOS cells were cultured in 96-well plates using MEM (Wako) comprising 10% FBS (CORNING), 1% non-essential amino acid solution (Wako), and 100 µ(micro)g/mL kanamycin (MEIJI), • HuO9 cells, HuO-3N1 cells, SJSA-1 cells, NOS-1 cells, and NOS-10 cells were cultured in 96-well plates using RPMI-1640 medium (Wako) comprising 10% FBS and 100 µ(micro)g/mL kanamycin. • G-292 clone A141B1 (G-292) cells were cultured in 96-well plate using McCoy's 5a medium comprising 10% FBS, • Sa-xeno-147 and Sa-xeno-184 cell lines were developed from patient-derived xenograft tumors and were cultured in collagen-coated dishes with RPMI 1640/Ham's F12 (1:1) medium comprising 15% FBS, 20 mM HEPES, and antibiotic-antimycotic solution (Sigma-Aldrich). Cells were cultured at 37°C and 5% CO2.
Cells were seeded in triplicate in 96-well plates (Greiner) or type I collagen-coated plates (IWAKI) at a density of 2000 cells/well and cultured for at least 24 h. After 72 hours of incubation with any of the 96 compounds of the library of the inhibitors, cells were incubated with CellTiter-Glo reagent (Promega) for 2 minutes on a Titramax 100 plate shaker (Heidolph), and after 10 minutes of equilibration, cell viability assays of each osteosarcoma cell were performed by measuring luminescence using a Tristar LB941 multimode microplate reader (Berthold Technologies). The cell viability was calculated as a ratio of the DMSO control to evaluate their effects on osteosarcoma cell proliferation (n=2).

osteosarcoma cells [2] = assay: Cell viability after 1 µM obatoclax or navitoclax (CellTiter-Glo); format: cell-based, human; conditions: 72 hours, 11 types of osteosarcoma cells, Fig. 1B
Experimental: Among these five compounds, obatoclax, a pan-BH3 mimetic, was further investigated. Specifically, the osteosarcoma cells (the above described 11 types of osteosarcoma cells) were seeded in triplicate at a density of 2000 cells/well on 96-well plates (Greiner) or type I collagen-coated plates (IWAKI) and cultured for at least 24 hours. The osteosarcoma cells (i.e., the above described 11 types) were then treated with 1 µ(micro)M obatoclax for 72 hours, after which cell viability was measured using the CellTiter-Glo assay reagent.

Chain of Mcl-1 (Q07820 whole entry): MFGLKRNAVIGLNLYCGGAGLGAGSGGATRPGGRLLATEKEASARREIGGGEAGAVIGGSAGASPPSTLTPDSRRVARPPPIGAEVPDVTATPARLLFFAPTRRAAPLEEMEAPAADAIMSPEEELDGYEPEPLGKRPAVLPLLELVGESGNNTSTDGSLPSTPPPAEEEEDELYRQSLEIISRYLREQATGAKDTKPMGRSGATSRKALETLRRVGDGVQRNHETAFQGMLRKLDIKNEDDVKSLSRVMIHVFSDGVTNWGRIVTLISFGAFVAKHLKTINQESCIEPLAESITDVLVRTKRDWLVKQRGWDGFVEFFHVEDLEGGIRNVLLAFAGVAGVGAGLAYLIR

Cc1nn(C)c(COc2ccc(N3CCN(S(=O)(=O)N(C)C)CC3)cc2)c1-c1cccc2c(CCCOc3cccc4ccccc34)c(C(=O)O)n(CCN3CCOCC3)c12 [A-1210477]
selectivity than other Bcl-2 family members (Mcl-1): ≥ 100 fold

CCc1c2c(nc3ccc(O)cc13)-c1cc3c(c(=O)n1C2)COC(=O)[C@]3(O)CC [SN-38]
activity relative to irinotecan (topoisomerase): 1000 times
osteosarcoma cell proliferation (cell viability) (osteosarcoma cells [1]): extensive inhibition of osteosarcoma cell proliferation

CC1(C)CCC(c2ccc(Cl)cc2)=C(CN2CCN(c3ccc(C(=O)NS(=O)(=O)c4ccc(N[C@H](CCN5CCOCC5)CSc5ccccc5)c(S(=O)(=O)C(F)(F)F)c4)cc3)CC2)C1 [navitoclax]
cell viability (osteosarcoma cells [2]): little effect on osteosarcoma cell proliferation
